Assays:
[1] = Metabolite in liver microsomes and hepatocytes; format: in vitro ADME; conditions: male human, monkey, dog, rat, and mouse liver microsomes and hepatocytes
[2] = Metabolite in female mouse liver microsomes; format: in vitro ADME
[3] = Stability of amorphous Compound A (spray-dried intermediate); format: physicochemical
Procedure: The stability of amorphous Compound A was assessed at three stability conditions: 2-8° C.; 25° C./60% RH; and 40° C./75% RH for a period of 12 months.
During stability testing, amorphous Compound A was stored in wire-tied low-density polyethylene bags placed in heat-induction sealed, high-density polyethylene (HDPE) bottles containing a desiccant canister, and capped with polypropylene-lined closures.

[4] = Glass transition and recrystallization temperature of amorphous solids; format: physicochemical
Procedure: Thus, while crystals of Compound A are quite stable, there is a significant barrier to transforming to a crystalline state from an amorphous form. Indeed, a ramped temperature increase of a partially-crystalline sample does eventually lead to a recrystallization event, but not until a temperature of 200-220° C. is achieved. […] As discussed below, this robust resistance to crystallization is preserved even in the presence of water.
The amorphous form of pure Compound A is robust with a high Tg and even higher recrystallization temperature. The glass transition temperature does decrease under the plasticizing conditions of high humidity. However, the value is still well above the commonly applied 40-50° C. difference between Tg and any temperature the clinical presentation will encounter.

[5] = Membrane flux experiment (donor/receiver compartments, SIF bile salts); conditions: amorphous suspension as donor compartment contents
Procedure: A membrane flux experiment was conducted in which a fixed amount of compound was introduced into the donor compartment at various concentrations of the SIF bile salts, and appearance of drug was monitored on the receiver side.

[6] = Rat pharmacokinetic studies with solutions and spray-dried dispersions; conditions: male, rat, in vivo, po, 150 mg/kg
[7] = 90-minute non-sink dissolution, pH 2 HCl shifted to pH 6.5 SIF; format: physicochemical; conditions: 1 mg/mL in pH 2 HCl, shift to pH 6.5 SIF at 30 minutes
Procedure: FIG. 11 is a series of line graphs showing the dissolution of crystalline vs. amorphous Compound A API. API (1 mg/mL) is present in gastric conditions (pH=2), which is 2× diluted with FaSSIF at 30 minutes to increase the pH to 6.5. (API=active pharmaceutical ingredient; FaSSIF=fasted state simulated intestinal fluid.)
FIG. 12 is a series of line graphs showing the non-sink dissolution of spray-dried amorphous Compound A produced at multiple scales. API (500 μg/mL) is present in gastric conditions (pH=2), which is 2× Diluted with FaSSIF at 30 minutes to increase the pH to 6.5.
A 90-minute non-sink dissolution experiment was conducted in which a Compound A suspension was introduced into pH 2 HCl at a final concentration of 1 mg/mL, which was then periodically sampled and prepared for analysis via centrifugation. A shift to pH 6.5 SIF was carried out 30 minutes into the experiment.

[8] = after 6 months of storage at 2-8° C.
[9] = after 12 months at 25° C./60% RH
[10] = after 12 months at 40° C./75% RH

N#Cc1ccc(O[C@H]2CC[C@H](NC(=O)c3ccc(N4CCC(C(=O)O)CC4)nn3)CC2)cc1Cl [Impurity 1]
occurrence as metabolite [1]: A process impurity resulting from over oxidation of Intermediate 2 in Step 2. This impurity is also a metabolite in male human, monkey, dog, rat, and mouse liver microsomes and hepatocytes

N#Cc1ccc(O[C@H]2CC[C@H](NC(=O)c3ccc(N4CCC(CO)CC4)nn3)CC2)cc1Cl [Intermediate 2, N-((1r,4r)-4-(3-chloro-4-cyanophenoxy)cyclohexyl)-6-(4-(hydroxymethyl)piperidin-1-yl)pyridazine-3-carboxamide]
occurrence as metabolite [2]: A process impurity in Intermediate 3 and can be formed as a by-product of the reductive amination in Step 3. This impurity is also a metabolite in female mouse liver microsomes

N#Cc1ccc(O[C@H]2CC[C@H](NC(=O)c3ccc(N4CCC(CN5CCN(c6cc7c(cc6F)C(=O)N(C6CCC(=O)NC6=O)C7=O)CC5)CC4)nn3)CC2)cc1Cl (some centres unmarked) [Spray-Dried Amorphous Compound A]
purity [3, 8]: 95.7% | water (major impurity) [3, 8]: 0.9% | purity [3, 9]: 97.7% | water (major impurity) [3, 9]: 1.62% | purity [3, 10]: 98% | water (major impurity), Karl Fischer titration [3, 10]: 2.16% | recrystallization of the amorphous form ([3]; all three storage conditions, any time during the studies): no evidence of recrystallization | Glass Transition Temperature ([4]; Temperature/RH 25/0 (° C./%)): 146 °C | Glass Transition Temperature ([4]; Temperature/RH 40/75 (° C./%)): 103 °C | Flux (μg-min^−1-cm^−2) [5]: 0.15 μg-min^−1-cm^−2 | AUC [6]: 19400 ng·h/mL | non-sink dissolution, amorphous vs crystalline (FIG. 11) [7]: Higher concentrations are achieved in the gastric phase of the experiment and sustained in the intestinal phase
